Test results reported in PubChem BioAssay (NCI).
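The compound was tested at five concentrations on cells cultured in 96-well plates, with a 48-hour exposure period. GI50 is the concentration that inhibits growth by half. The concentration for full growth arrest is given as TGI.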

What was measured:
Assay in all cases: DTP human tumour cell line panel, 48 h
786-0 renal = tested on: 786-0 renal
A498 renal = tested on: A498 renal
A549 NSCLC = tested on: A549 NSCLC
ACHN renal = tested on: ACHN renal
BT-549 breast = tested on: BT-549 breast
CAKI-1 renal = tested on: CAKI-1 renal
CCRF-CEM leukemia = tested on: CCRF-CEM leukemia
COLO 205 colon = tested on: COLO 205 colon
DU-145 prostate = tested on: DU-145 prostate
EKVX NSCLC = tested on: EKVX NSCLC
HCC-2998 colon = tested on: HCC-2998 colon
HCT-116 colon = tested on: HCT-116 colon
HCT-15 colon = tested on: HCT-15 colon
HL-60(TB) leukemia = tested on: HL-60(TB) leukemia
HOP-62 NSCLC = tested on: HOP-62 NSCLC
HOP-92 NSCLC = tested on: HOP-92 NSCLC
HS 578T breast = tested on: HS 578T breast
HT29 colon = tested on: HT29 colon
IGROV1 ovarian = tested on: IGROV1 ovarian
K-562 leukemia = tested on: K-562 leukemia
KM12 colon = tested on: KM12 colon
LOX IMVI melanoma = tested on: LOX IMVI melanoma
M14 melanoma = tested on: M14 melanoma
MALME-3M melanoma = tested on: MALME-3M melanoma
MCF7 breast = tested on: MCF7 breast
MDA-MB-231 breast = tested on: MDA-MB-231 breast
MDA-MB-435 = tested on: MDA-MB-435
MOLT-4 leukemia = tested on: MOLT-4 leukemia
NCI-H226 lung = tested on: NCI-H226 lung
NCI-H460 lung = tested on: NCI-H460 lung
NCI-H522 lung = tested on: NCI-H522 lung
NCI/ADR-RES ovarian = tested on: NCI/ADR-RES ovarian
OVCAR-3 ovarian = tested on: OVCAR-3 ovarian
OVCAR-4 ovarian = tested on: OVCAR-4 ovarian
OVCAR-5 ovarian = tested on: OVCAR-5 ovarian
OVCAR-8 ovarian = tested on: OVCAR-8 ovarian
PC-3 prostate = tested on: PC-3 prostate
RPMI-8226 leukemia = tested on: RPMI-8226 leukemia
RXF 393 renal = tested on: RXF 393 renal
SF-268 CNS = tested on: SF-268 CNS
SF-295 CNS = tested on: SF-295 CNS
SF-539 CNS = tested on: SF-539 CNS
SK-MEL-2 melanoma = tested on: SK-MEL-2 melanoma
SK-MEL-28 melanoma = tested on: SK-MEL-28 melanoma
SK-MEL-5 melanoma = tested on: SK-MEL-5 melanoma
SK-OV-3 ovarian = tested on: SK-OV-3 ovarian
SN12C renal = tested on: SN12C renal
SNB-19 CNS = tested on: SNB-19 CNS
SNB-75 CNS = tested on: SNB-75 CNS
SR leukemia = tested on: SR leukemia
SW-620 colon = tested on: SW-620 colon
T-47D breast = tested on: T-47D breast
TK-10 renal = tested on: TK-10 renal
U251 CNS = tested on: U251 CNS
UACC-257 melanoma = tested on: UACC-257 melanoma
UACC-62 melanoma = tested on: UACC-62 melanoma
UO-31 renal = tested on: UO-31 renal

SMILES: COCCOc1ccc2ncc(C#Cc3cncc(C(=O)Nc4ccc(CN5CCN(C)CC5)c(C(F)(F)F)c4)c3)n2n1
- GI50 (786-0 renal): 802 nM
- TGI (786-0 renal): 1640 nM
- GI50 (A498 renal): 1170 nM
- TGI (A498 renal): 2250 nM
- GI50 (A549 NSCLC): 885 nM
- TGI (A549 NSCLC): 2610 nM
- GI50 (ACHN renal): 364 nM
- TGI (ACHN renal): 2010 nM
- GI50 (BT-549 breast): 1540 nM
- TGI (BT-549 breast): 4280 nM
- GI50 (CAKI-1 renal): 484 nM
- TGI (CAKI-1 renal): 2920 nM
- GI50 (CCRF-CEM leukemia): 700 nM
- TGI (CCRF-CEM leukemia): 4630 nM
- GI50 (COLO 205 colon): 529 nM
- TGI (COLO 205 colon): 1540 nM
- GI50 (DU-145 prostate): 1060 nM
- TGI (DU-145 prostate): 4760 nM
- GI50 (EKVX NSCLC): 951 nM
- TGI (EKVX NSCLC): 7750 nM
- GI50 (HCC-2998 colon): 1180 nM
- TGI (HCC-2998 colon): 7540 nM
- GI50 (HCT-116 colon): 227 nM
- TGI (HCT-116 colon): 1020 nM
- GI50 (HCT-15 colon): 549 nM
- TGI (HCT-15 colon): 2510 nM
- GI50 (HL-60(TB) leukemia): 311 nM
- TGI (HL-60(TB) leukemia): 1480 nM
- GI50 (HOP-62 NSCLC): 997 nM
- TGI (HOP-62 NSCLC): 4370 nM
- GI50 (HOP-92 NSCLC): 142 nM
- TGI (HOP-92 NSCLC): 628 nM
- GI50 (HS 578T breast): 598 nM
- TGI (HS 578T breast): 2640 nM
- GI50 (HT29 colon): 372 nM
- TGI (HT29 colon): 3090 nM
- GI50 (IGROV1 ovarian): 351 nM
- TGI (IGROV1 ovarian): 2350 nM
- GI50 (K-562 leukemia): 5 nM
- TGI (K-562 leukemia): 937 nM
- GI50 (KM12 colon): 14 nM
- TGI (KM12 colon): 2720 nM
- GI50 (LOX IMVI melanoma): 367 nM
- TGI (LOX IMVI melanoma): 1040 nM
- GI50 (M14 melanoma): 265 nM
- TGI (M14 melanoma): 1130 nM
- GI50 (MALME-3M melanoma): 220 nM
- TGI (MALME-3M melanoma): 868 nM
- GI50 (MCF7 breast): 166 nM
- TGI (MCF7 breast): 968 nM
- GI50 (MDA-MB-231 breast): 274 nM
- TGI (MDA-MB-231 breast): 1240 nM
- GI50 (MDA-MB-435): 421 nM
- TGI (MDA-MB-435): 4440 nM
- GI50 (MOLT-4 leukemia): 696 nM
- TGI (MOLT-4 leukemia): 3730 nM
- GI50 (NCI-H226 lung): 271 nM
- TGI (NCI-H226 lung): 1540 nM
- GI50 (NCI-H460 lung): 708 nM
- TGI (NCI-H460 lung): 1470 nM
- GI50 (NCI-H522 lung): 620 nM
- TGI (NCI-H522 lung): 1450 nM
- GI50 (NCI/ADR-RES ovarian): 1210 nM
- TGI (NCI/ADR-RES ovarian): 3410 nM
- GI50 (OVCAR-3 ovarian): 1090 nM
- TGI (OVCAR-3 ovarian): 7440 nM
- GI50 (OVCAR-4 ovarian): 840 nM
- TGI (OVCAR-4 ovarian): 8450 nM
- GI50 (OVCAR-5 ovarian): 663 nM
- TGI (OVCAR-5 ovarian): 6070 nM
- GI50 (OVCAR-8 ovarian): 874 nM
- TGI (OVCAR-8 ovarian): 2220 nM
- GI50 (PC-3 prostate): 1790 nM
- TGI (PC-3 prostate): 8290 nM
- GI50 (RPMI-8226 leukemia): 874 nM
- TGI (RPMI-8226 leukemia): 2590 nM
- GI50 (RXF 393 renal): 733 nM
- TGI (RXF 393 renal): 1410 nM
- GI50 (SF-268 CNS): 787 nM
- TGI (SF-268 CNS): 2130 nM
- GI50 (SF-295 CNS): 3360 nM
- TGI (SF-295 CNS): 12700 nM
- GI50 (SF-539 CNS): 209 nM
- TGI (SF-539 CNS): 3090 nM
- GI50 (SK-MEL-2 melanoma): 403 nM
- TGI (SK-MEL-2 melanoma): 1130 nM
- GI50 (SK-MEL-28 melanoma): 676 nM
- TGI (SK-MEL-28 melanoma): 1720 nM
- GI50 (SK-MEL-5 melanoma): 1700 nM
- TGI (SK-MEL-5 melanoma): 7260 nM
- GI50 (SK-OV-3 ovarian): 2070 nM
- TGI (SK-OV-3 ovarian): 6400 nM
- GI50 (SN12C renal): 516 nM
- TGI (SN12C renal): 3670 nM
- GI50 (SNB-19 CNS): 3920 nM
- TGI (SNB-19 CNS): 15000 nM
- GI50 (SNB-75 CNS): 272 nM
- TGI (SNB-75 CNS): 1260 nM
- GI50 (SR leukemia): 687 nM
- TGI (SR leukemia): 2480 nM
- GI50 (SW-620 colon): 402 nM
- TGI (SW-620 colon): 1350 nM
- GI50 (T-47D breast): 2720 nM
- TGI (T-47D breast): 12500 nM
- GI50 (TK-10 renal): 1590 nM
- TGI (TK-10 renal): 5860 nM
- GI50 (U251 CNS): 2190 nM
- TGI (U251 CNS): 10200 nM
- GI50 (UACC-257 melanoma): 1200 nM
- TGI (UACC-257 melanoma): 5690 nM
- GI50 (UACC-62 melanoma): 1500 nM
- TGI (UACC-62 melanoma): 7660 nM
- GI50 (UO-31 renal): 622 nM
- TGI (UO-31 renal): 3190 nM
